{"source": "patent US11530244B2", "about": "“Cyclic polypeptides for PCSK9 inhibition” (priority 2018, dated 2022)", "key": {"[1]": {"biological_target": "human PCSK9 / human LDLR EGFa domain interaction (Homo sapiens (Human), UniProt Q8NBP7)", "sequence (Q8NBP7 153-692)": "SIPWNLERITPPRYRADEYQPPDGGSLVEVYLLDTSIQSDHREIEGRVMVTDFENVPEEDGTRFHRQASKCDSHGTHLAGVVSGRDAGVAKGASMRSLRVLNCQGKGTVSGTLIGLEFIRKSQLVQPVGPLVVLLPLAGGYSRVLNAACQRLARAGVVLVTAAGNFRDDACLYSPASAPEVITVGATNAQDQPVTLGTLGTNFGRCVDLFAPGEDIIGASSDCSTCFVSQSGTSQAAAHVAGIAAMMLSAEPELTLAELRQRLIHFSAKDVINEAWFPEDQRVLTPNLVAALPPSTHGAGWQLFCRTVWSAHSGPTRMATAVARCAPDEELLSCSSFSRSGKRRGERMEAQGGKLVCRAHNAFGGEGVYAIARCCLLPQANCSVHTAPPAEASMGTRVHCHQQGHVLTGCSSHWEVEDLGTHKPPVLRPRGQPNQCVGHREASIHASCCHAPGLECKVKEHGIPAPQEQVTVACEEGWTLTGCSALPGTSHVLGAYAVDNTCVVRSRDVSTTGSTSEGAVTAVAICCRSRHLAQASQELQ", "sequence (Q8NBP7 31-152 partner)": "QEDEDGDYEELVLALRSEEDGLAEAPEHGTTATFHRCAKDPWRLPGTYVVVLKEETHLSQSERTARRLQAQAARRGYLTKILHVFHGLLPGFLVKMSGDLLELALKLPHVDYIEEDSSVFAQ", "assay": "TR-FRET assay of inhibition of the PCSK9-LDLR protein-protein interaction", "assay_type": "binding", "conditions": "TR-FRET, 20 nM human PCSK9, 20 nM human LDLR EGFa domain, 2 hours room temperature; read-out: IC50", "summary_of_the_method": "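Avitag-biotinylated human PCSK9 (20 nM) and his-tagged human LDLR EGFa domain (20 nM) were incubated with 5 nM Ulight streptavidin and 5 nM europium anti-6×His for 2 h at room temperature. Buffer: 50 mM HEPES, 150 mM NaCl, 5 mM CaCl2, 0.01% BSA, 0.01% P20. IC50 from 4-parameter fit of dose-response.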"}, "PCSK9": {"biological_target": "PCSK9 (Homo sapiens (Human), UniProt Q8NBP7)", "sequence (Q8NBP7 153-692)": "as the sequence (Q8NBP7 153-692) above", "assay": "PCSK9 Alexa FRET Standard assay (displacement of AlexaFluor647 tagged cyclic peptide Reagent A)", "assay_type": "binding", "conditions": "PCSK9 Alexa FRET Standard assay, 0.5 nM PCSK9, 20 nM AF cyclic peptide Reagent A; read-out: IC50", "summary_of_the_method": "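TR-FRET displacement: 0.5 nM biotinylated PCSK9 with 1.25 nM Strep-Eu and 20 nM AlexaFluor-tagged cyclic peptide (final) in 50 mM HEPES pH 7.4, 0.15 M NaCl, 5 mM CaCl2, 0.01% BSA, 0.01% P20, ≥2 h at room temperature. IC50 from sigmoidal fit, converted to Ki via peptide KD; falling Eu counts flagged false positives.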"}}, "note": "Starred links: 1 amine or outer side, 2 acyl side, 3 side chain; linkers in the order of their positions; H or OH if unused. Positions of bridges follow the written chain, without caps; N, C: chain ends. Non-standard residues stand in square brackets, D forms with d. Residues, ends and D or L forms follow the SMILES beside them. NMeTrp(1-Me) = CN[C@@H](Cc1cn(C)c2ccccc12)C(=O)O; Phe(4-COOH) = N[C@@H](Cc1ccc(C(=O)O)cc1)C(=O)O; Trp(5-F) = N[C@@H](Cc1c[nH]c2ccc(F)cc12)C(=O)O; Pyridine(3,5-bisCH2) = c1ncc(C[*:2])cc1C[*:1]; Tyr(3-Cl) = N[C@@H](Cc1ccc(O)c(Cl)c1)C(=O)O; X9 = CS[C@H]1C[C@@H](C(=O)[*:2])N([*:1])C1; mXylylene(5-F) = Fc1cc(C[*:1])cc(C[*:2])c1; X12 = O=C([C@H](CCCCC=[*:3])N[*:1])[*:2]; X4 = O=C(CCSCc1cccc(CSCCN[*:1])c1)[*:2]; 2Nal = N[C@@H](Cc1ccc2ccccc2c1)C(=O)O; mXylylene = c1cc(C[*:1])cc(C[*:2])c1; dNMeL = CN[C@H](CC(C)C)C(=O)O; αMeP = C[C@@]1(C(=O)O)CCCN1; Nva = CCC[C@H](N)C(=O)O; Mpa = O=C(O)CCS", "data": [{"compound": "COc1ccc(C[C@@H]2NC(=O)[C@H]([C@@H](C)O)NC(=O)[C@@H]3CCCN3C(=O)[C@H](Cc3c[nH]c4ccc(F)cc34)NC(=O)[C@H](Cc3c[nH]c4ccc(F)cc34)NC(=O)[C@@H](C)NC(=O)[C@H](CCCCN)NC(=O)CCSCc3cncc(c3)CSC[C@@H](C(N)=O)NC(=O)[C@]3(C)CCCN3C2=O)cc1", "note": "[Compound 058] ([Mpa]K[dA][Trp(5-F)][Trp(5-F)]PTY(Me)[αMeP]C-NH2; linker 1-10 via Pyridine(3,5-bisCH2))", "values": [{"measurement": "IC50", "setting": "[1]", "result": "0.0001 to 0.1", "unit": "µM"}, {"measurement": "IC50", "setting": "PCSK9", "result": "0.00011 to 0.1", "unit": "µM"}]}, {"compound": "COc1ccc(C[C@@H]2NC(=O)[C@H]([C@@H](C)O)NC(=O)[C@@H]3CCCN3C(=O)[C@H](Cc3c[nH]c4ccc(F)cc34)NC(=O)[C@H](Cc3c[nH]c4ccc(F)cc34)NC(=O)[C@@H](C)NC(=O)[C@H](CCCCN)NC(=O)CCSCc3cccc(c3)CSC[C@@H](C(N)=O)NC(=O)[C@]3(C)CCCN3C2=O)cc1", "note": "[Compound 054] ([Mpa]K[dA][Trp(5-F)][Trp(5-F)]PTY(Me)[αMeP]C-NH2; linker 1-10 via mXylylene)", "values": [{"measurement": "IC50", "setting": "[1]", "result": "0.0001 to 0.1", "unit": "µM"}, {"measurement": "IC50", "setting": "PCSK9", "result": "0.1 to 1", "unit": "µM"}]}, {"compound": "C[C@H]1NC(=O)[C@H](CCCCN)NC(=O)CCSCc2cccc(c2)CSCCNC(=O)[C@]2(C)CCCN2C(=O)[C@H](Cc2ccc(O)c(Cl)c2)NC(=O)[C@H](Cc2cnc[nH]2)NC(=O)[C@H](CC(=O)O)NC(=O)[C@H](Cc2c[nH]c3ccc(F)cc23)NC(=O)[C@H](Cc2c[nH]c3ccc(F)cc23)NC1=O", "note": "[Compound 246] (cyclo(DH[Tyr(3-Cl)][αMeP][X4]K[dA][Trp(5-F)][Trp(5-F)]))", "values": [{"measurement": "IC50", "setting": "[1]", "result": "0.1 to 1", "unit": "µM"}, {"measurement": "IC50", "setting": "PCSK9", "result": "1 to 12.1", "unit": "µM"}]}, {"compound": "CS[C@H]1C[C@H]2C(=O)N[C@H](C(N)=O)CSCc3cccc(c3)CSCCC(=O)N[C@@H](CCCCN)C(=O)NCC(=O)N[C@@H](Cc3c[nH]c4ccc(F)cc34)C(=O)N[C@@H](Cc3c[nH]c4ccc(F)cc34)C(=O)N[C@@H](CC(=O)O)C(=O)N[C@@H](Cc3cnc[nH]3)C(=O)N[C@@H](Cc3ccc(O)cc3)C(=O)N2C1", "note": "[Compound 363] ([Mpa]KG[Trp(5-F)][Trp(5-F)]DHY[X9]C-NH2; linker 1-10 via mXylylene)", "values": [{"measurement": "IC50", "setting": "[1]", "result": "0.0001 to 0.1", "unit": "µM"}, {"measurement": "IC50", "setting": "PCSK9", "result": "0.1 to 1", "unit": "µM"}]}, {"compound": "COc1ccc(C[C@@H]2NC(=O)[C@H](Cc3cnc[nH]3)NC(=O)[C@H](CC(=O)O)NC(=O)[C@H](Cc3c[nH]c4ccc(F)cc34)NC(=O)[C@H](Cc3c[nH]c4ccc(F)cc34)NC(=O)[C@H](C)NC(=O)[C@H](NC(C)=O)CCc3cn(nn3)-c3ccc(cc3)C[C@@H](C(N)=O)NC(=O)[C@]3(C)CCCN3C2=O)cc1", "note": "[Compound 392]", "values": [{"measurement": "IC50", "setting": "[1]", "result": "0.0001 to 0.1", "unit": "µM"}, {"measurement": "IC50", "setting": "PCSK9", "result": "0.1 to 1", "unit": "µM"}]}, {"compound": "COc1ccc(C[C@@H]2NC(=O)[C@H](Cc3cnc[nH]3)NC(=O)[C@H](CC(=O)O)NC(=O)[C@H](Cc3c[nH]c4ccc(F)cc34)NC(=O)[C@H](Cc3c[nH]c4ccc(F)cc34)NC(=O)[C@@H](C)NC(=O)[C@H](CCCCN)NC(=O)CCSCc3cc(F)cc(c3)CSC[C@@H](C(N)=O)NC(=O)[C@]3(C)CCCN3C2=O)cc1", "note": "[Compound 338] ([Mpa]K[dA][Trp(5-F)][Trp(5-F)]DHY(Me)[αMeP]C-NH2; linker 1-10 via mXylylene(5-F))", "values": [{"measurement": "IC50", "setting": "[1]", "result": "1 to 12.1", "unit": "µM"}, {"measurement": "IC50", "setting": "PCSK9", "result": "1 to 12.1", "unit": "µM"}]}, {"compound": "CC(=O)N[C@@H]1CCCCNC(=O)c2ccc(cc2)C[C@@H](C(N)=O)NC(=O)[C@]2(C)CCCN2C(=O)[C@H](Cc2ccc(O)cc2)NC(=O)[C@H](Cc2cnc[nH]2)NC(=O)[C@H](CC(=O)O)NC(=O)[C@H](Cc2c[nH]c3ccc(F)cc23)NC(=O)[C@H](Cc2c[nH]c3ccc(F)cc23)NC(=O)CNC1=O", "note": "[Compound 255] (Ac-[dK]G[Trp(5-F)][Trp(5-F)]DHY[αMeP][Phe(4-COOH)]-NH2; lactam 1-9)", "values": [{"measurement": "IC50", "setting": "[1]", "result": "0.1 to 1", "unit": "µM"}, {"measurement": "IC50", "setting": "PCSK9", "result": "0.1 to 1", "unit": "µM"}]}, {"compound": "COc1ccc(C[C@@H]2NC(=O)[C@H](Cc3cnc[nH]3)NC(=O)[C@H](CC(=O)O)NC(=O)[C@H](Cc3c[nH]c4ccc(F)cc34)NC(=O)[C@H](Cc3c[nH]c4ccc(F)cc34)NC(=O)[C@@H](C)NC(=O)[C@H](NC(C)=O)Cc3cn(nn3)-c3ccc(cc3)C[C@@H](C(N)=O)NC(=O)[C@]3(C)CCCN3C2=O)cc1", "note": "[Compound 381]", "values": [{"measurement": "IC50", "setting": "[1]", "result": "0.1 to 1", "unit": "µM"}, {"measurement": "IC50", "setting": "PCSK9", "result": "1 to 12.1", "unit": "µM"}]}, {"compound": "COc1ccc(C[C@@H]2NC(=O)[C@H]([C@@H](C)O)NC(=O)[C@@H]3CCCC/C=C\\CCCC[C@H](NC(=O)[C@@H](C)NC(=O)[C@H](C)NC(=O)CCSCc4cccc(c4)CSCCNC(=O)[C@]4(C)CCCN4C2=O)C(=O)N[C@@H](Cc2c[nH]c4ccc(F)cc24)C(=O)N3)cc1", "note": "[Compound 495] (cyclo(A[dA][X12][Trp(5-F)][X12]TY(Me)[αMeP][X4]); staple (Z) 3-5)", "values": [{"measurement": "IC50", "setting": "[1]", "result": "0.1 to 1", "unit": "µM"}, {"measurement": "IC50", "setting": "PCSK9", "result": "0.00011 to 0.1", "unit": "µM"}]}, {"compound": "CCC[C@@H]1NC(=O)CCSCc2cccc(c2)CSC[C@@H](C(N)=O)NC(=O)[C@@H]2CCCN2C(=O)[C@H](Cc2ccc(OC)cc2)NC(=O)[C@H]([C@@H](C)OC)NC(=O)[C@@H]2CCCN2C(=O)[C@H](Cc2cn(C)c3ccccc23)N(C)C(=O)[C@H](Cc2ccc3ccccc3c2)NC(=O)[C@@H](CC(C)C)N(C)C1=O", "note": "[Compound 038] ([Mpa][Nva][dNMeL][2Nal][NMeTrp(1-Me)]PT(Me)Y(Me)PC-NH2; linker 1-10 via mXylylene)", "values": [{"measurement": "IC50", "setting": "[1]", "result": "0.0001 to 0.1", "unit": "µM"}, {"measurement": "IC50", "setting": "PCSK9", "result": "0.00011 to 0.1", "unit": "µM"}]}]}
